This note sets out measurements from patent publication US6518279B2, “Cyclopentanone dihydropyridine compounds useful as potassium channel openers” (Abbott Laboratories, priority 1999, dated 2003).

One may read the melting point as the temperature, or range, at which the solid turns liquid. As usually defined, the solubility is how much of the substance goes into solution per volume.

Structures are written as SMILES. ≈ marks a conversion by molar mass, not a printed value. Read-outs that look alike come from different tables or passages of the source.

Data set [1] concerns guinea-pig urinary bladder (GPB) cells. Nature of the data set: Membrane hyperpolarization (MHP) assay, potassium channel opening activity, DiBAC(4)3 / FLIPR. The format is cell-based. The note with it: Cavia porcellus; for Emax: maximal steady-state hyperpolarization in GPB cells, relative to 10 μM P1075 (100%), read-out: Maximal Response (% P1075); for EC50: membrane hyperpolarization in GPB cells. As to the method:
Compounds were evaluated for potassium channel opening activity using primary cultured guinea-pig urinary bladder (GPB) cells.
For the preparation of urinary bladder smooth muscle cells, urinary bladders were removed from male guinea-pigs (Hartley, Charles River, Wilmington, Mass.) weighing 300-400 g and placed in ice-cold Ca^2+-free Krebs solution (Composition, mM: KCl, 2.7; KH2PO4, 1.5; NaCl, 75; Na2HPO4, 9.6; Na2HPO4·7H2O, 8; MgSO4, 2; glucose, 5; HEPES, 10; pH 7.4). Cells were isolated by enzymatic dissociation as previously described with minor modifications (Klockner, U. and Isenberg, G., Pflugers Arch. (1985), 405, 329-339), hereby incorporated by reference. The bladder was cut into small sections and incubated in 5 mL of the Kreb's solution containing 1 mg/mL collagenase (Sigma, St. Louis, Mo.) and 0.2 mg/mL pronase (Calbiochem, La Jolla, Calif.) with continuous stirring in a cell incubator for 30 minutes. The mixture was then centrifuged at 1300×g for 5 minutes, and the pellet resuspended in Dulbecco's PBS (GIBCO, Gaithersburg, Md.) and recentrifuged to remove residual enzyme. The cell pellet was resuspended in 5 mL growth media (composition: Dulbecco's modified Eagle's medium supplemented with 10% fetal bovine serum, 100 units/mL penicillin, 100 units/mL streptomycin and […] amphotericin B) and further dissociated by pipetting the suspension through a flame-polished Pasteur pipette and passing it through a polypropylene mesh membrane (Spectrum, Houston, Tex.). The cell density was adjusted to 100,000 cells/mL by resuspension in growth media. Cells were plated in clear-bottomed black 96-well plates (Packard) for membrane potential studies at a density of 20,000 cells/well and maintained in a cell incubator with 90% air: 10% CO2 until confluent. Cells were confirmed to be of smooth muscle type by cytoskeletal staining using a monoclonal mouse anti human-α-smooth muscle actin (Biomeda, Foster City, Calif.)
Functional activity at potassium channels was measured by evaluating changes in membrane potential using the bis-oxonol dye DiBAC(4)3 (Molecular Probes) in a 96-well cell-based kinetic assay system, Fluorescent Imaging Plate Reader (FLIPR) (K. S. Schroeder et al., J. Biomed. Screen., v. 1 pp. 75-81 (1996)), hereby incorporated by reference. DiBAC(4)3 is an anionic potentiometric probe which partitions between cells and extracellular solution in a membrane potential-dependent manner. With increasing membrane potential (for example, K^+ depolarization), the probe further partitions into the cell; this is measured as an increase in fluorescence due to dye interaction with intracellular lipids and proteins. Conversely, decreasing membrane potential (hyperpolarization by potassium channel openers) evokes a decrease in fluorescence.
Confluent guinea-pig urinary bladder cells cultured in black clear-bottomed 96-well plates were rinsed twice with […] assay buffer (composition, mM: HEPES, 20; NaCl, 120; KCl, 2; CaCl2, 2; MgCl2, 1; glucose, 5; pH 7.4 at 25° C.) containing 5 μM DiBAC(4)3 and incubated with […] of the buffer in a cell incubator for 30 minutes at 37° C. to ensure dye distribution across the membrane. After recording the baseline fluorescence for 5 minutes, the reference or test compounds, prepared at 10 times the concentration in the assay buffer, were added directly to the wells. Changes in fluorescence were monitored for an additional 25 minutes. Hyperpolarization responses were corrected for any background noise and were normalized to the response observed with 10 μM of the reference compound P1075 (assigned as 100%), a potent opener of smooth muscle KATP channels (Quast et al., Mol. Pharmacol., v. 43 pp. 474-481 (1993)), hereby incorporated by reference.
Routinely, five concentrations of P1075 or test compounds (log or half-log dilutions) were evaluated and the maximal steady-state hyperpolarization values (expressed as % relative to P1075) plotted as a function of concentration. […]

Data set [2] concerns Landrace pig bladder strips. As to the kind of experiment: Functional potassium channel opening activity in isolated bladder strips (field-stimulated twitch). The conditions noted are these: for Index: ED50 of P1075 divided by ED50 of test agonist in a given tissue, averaged; for EC50: Sus scrofa, negative logarithm of ED50, Landrace pig bladder strips, read-out: pD2 (converted); for Efficacy (% P1075): maximal efficacy on the stimulated twitch, Landrace pig bladder strips. As to the method: Compounds were evaluated for functional potassium channel opening activity using tissue strips obtained from Landrace pig bladders.
Landrace pig bladders were obtained from female Landrace pigs of 9-30 kg. Landrace pigs were euthanized with an intraperitoneal injection of pentobarbital solution, Somlethal®, J. A. Webster Inc., Sterling Mass. The entire bladder was removed and immediately placed into Krebs Ringer bicarbonate solution (composition, mM: NaCl, 120; NaHCO3, 20; dextrose, 11; KCl, 4.7; CaCl2, 2.5; MgSO4, 1.5; KH2PO4, 1.2; K2EDTA, 0.01, equilibrated with 5% CO2/95% O2 pH 7.4 at 37° C.). Propranolol (0.004 mM) was included in all of the assays to block β-adrenoceptors. The trigonal and dome portions were discarded. Strips 3-5 mm wide and 20 mm long were prepared from the remaining tissue cut in a circular fashion. The mucosal layer was removed. One end was fixed to a stationary glass rod and the other to a Grass FT03 transducer at a basal preload of 1.0 gram. Two parallel platinum electrodes were included in the stationary glass rod to provide field stimulation of 0.05 Hz, 0.5 milli-seconds at 20 volts. This low frequency stimulation produced a stable twitch response of 100-500 centigrams. Tissues were allowed to equilibrate for at least 60 minutes and primed with 80 mM KCl. A control concentration response curve (cumulative) was generated for each tissue using the potassium channel opener P1075 as the control agonist. […] After a 60 minute rinsing period, a concentration response curve (cumulative) was generated for the test agonist in the same fashion as that used for the control agonist P1075. The maximal efficacy of each compounds (expressed as % relative to P1075) is reported. The amount of agent necessary to cause 50% of the agent's maximal response (ED50) was calculated using “ALLFIT” (DeLean et al., Am. J. Physiol. 235, E97 (1980)), hereby incorporated by reference, and agonist potencies were expressed as pD2 (the negative logarithm). Agonist potencies were also expressed as an index relative to P1075. The index was calculated by dividing the ED50 for P1075 by the ED50 for the test agonist in a given tissue. Each tissue was used for only one test agonist, and the indices obtained from each tissue were averaged to provide an average index of potency.

Data set [3] is described as follows: Aqueous solubility, 50 mM NaH2PO4 buffers, reverse-phase HPLC. The note with it: aqueous buffer, thermodynamic from solid, shaking 60 hours, room temperature. The format is physicochemical. As for the experimental part:
Aqueous solubilities were determined by shaking 60 hours at room temperature in 50 mM NaH2PO4 buffers at pH's 6.5 and 7.4. Assays were performed using reverse-phase HPLC. The solubilities are expressed in nanomoles per milliliter in Table 4.

A further data set has as its system bladder contractions. Nature of the data set: In-vivo bladder efficacy protocol (isovolumetric contractions model). Further details: species or system rat. The conditions noted are these: dose reducing area under the curve of bladder contractions by 30%, iv, anesthetized male CD rats. The text has this: In-vivo bladder efficacy protocol (isovolumetric contractions model)
Male CD rats (400-450 g) were anesthetized with urethane (0.6 g/kg ip+0.6 g/kg sc). The left femoral artery and vein were cannulated with polyethylene (PE-50) tubing for the measurement of arterial pressure and test compound administration respectively. A third polyethylene catheter (PE-60) was inserted 3-4 mm into the apex of the bladder dome and secured using a 5-0 silk purse string suture. The bladder was emptied via this catheter and additionally by applying slight manual pressure on the lower abdomen. The urinary catheter was connected using a Y-tube connector to both a pressure transducer and a syringe pump. […] After the contractions stabilized to a consistent pattern, bladder pressure and arterial pressure were monitored for 20 minutes before and after a dose of the vehicle (equal parts of β-cyclodextrin stock solution (100 g β-cyclodextrin dissolved in 200 ml) and sterile water) alone. […] Mean arterial pressure and area under the curve of the bladder contractions were determined from the respective waveforms using a Modular Instruments, Inc. computerized data acquisition system and averaged over the last ten minutes of each twenty minute period. […]
Example 3, of the present invention (Table 3, FIG. 1), was dosed at 0.01, 0.1 and 1 μmol/kg. The AUC ED30 for Example 3 was determined to be 0.1 μmol/kg.

[4] abbreviates: pH 6.5, 50 mM NaH2PO4 buffer, read-out: Aqueous solubility pH 6.5.
Where [5] appears, read: pH 7.4, 50 mM NaH2PO4 buffer, read-out: Aqueous solubility pH 7.4.

`O=C1CCC2=C1C(c1ccc3nonc3c1)C1=C(CCC1=O)N2` [Example 7, 8-(2,1,3-benzoxadiazol-5-yl)-2,3,4,5,6,8-hexahydrodicyclopenta[b,e]pyridine-1,7-dione] yielded a melting point of 272 to 273 °C. Also, in data set [1], the Emax came out at 98% and the EC50 was 130 nM.

Regarding `O=C1C=CC2=C1C(c1ccc(F)c(Br)c1)C1=C(CCCC1=O)N2` (centres unmarked) [Example 9, 9-(3-bromo-4-fluorophenyl)-5,6,7,9-tetrahydro-1H-cyclopenta[b]quinoline-1,8(4H)-dione], in data set [1], the Emax was 100% and the EC50 is 63 nM.

Turning to `O=C1CCC2=C1C(c1ccc(F)c(Br)c1)C1=C(CCC1=O)N2` [Example 1, 8-(3-Bromo-4-fluorophenyl)-2,3,4,5,6,8-hexahydrodicyclopenta[b,e]pyridine-1,7-dione], in data set [1], the Emax stood at 102% and the EC50 came out at 71 nM. In data set [2], the Index is 0.48, the EC50 is 158 nM and the “Efficacy (% P1075)” value amounted to 98 % P1075. Also, the solubility at 60 h in data set [3] (setting [4]) is 205 µM (≈ 74.3 µg/mL). For the same compound, the solubility at 60 h in data set [3] (setting [5]) is 227 µM (≈ 82.2 µg/mL).

Turning to `O=C1CCC2=C1C(c1cccc([N+](=O)[O-])c1)C1=C(CCC1=O)N2` [Example 4, 8-(3-Nitrophenyl)-2,3,4,5,6,8-hexahydrodicyclopenta[b,e]pyridine-1,7-dione], in data set [1], the Emax stood at 123% and the EC50 turned out to be 340 nM. Further, in data set [3] (setting [4]), the solubility at 60 h was 158 µM (≈ 49 µg/mL). In addition, the solubility at 60 h in data set [3] (setting [5]) amounted to 164 µM (≈ 50.9 µg/mL).

`CC1=C(C(=O)O)C(c2ccc(F)c(Br)c2)C2=C(CCC2=O)N1` (centres unmarked) [Example 10, 4-(3-bromo-4-fluorophenyl)-2-methyl-5-oxo-4,5,6,7-tetrahydro-1H-cyclopenta[b]pyridine-3-carboxylic acid] gave a melting point of 211 to 214 °C. Moreover, in data set [1], the Emax came out at 104% and the EC50 is 2680 nM.

`N#Cc1cccc(C2C3=C(CCC3=O)NC3=C2C(=O)CC3)c1` [Example 2, 8-(3-Cyanophenyl)-2,3,4,5,6,8-hexahydrodicyclopenta[b,e]pyridine-1,7-dione]: in data set [1], the Emax was 65% and the EC50 was determined as 5300 nM. In data set [2], the Index came out at 0.017, the EC50 is 6310 nM and the “Efficacy (% P1075)” value amounted to 96 % P1075. For the same compound, the solubility at 60 h in data set [3] (setting [4]) came out at 1300 µM (≈ 377 µg/mL). The solubility at 60 h in data set [3] (setting [5]) turned out to be 1290 µM (≈ 375 µg/mL).

Regarding `O=C1CCC2=C1C(c1ccc(F)c(I)c1)C1=C(CCC1=O)N2` [Example 8, 8-(3-Iodo-4-fluorophenyl)-2,3,4,5,6,8-hexahydrodicyclopenta[b,e]pyridine-1,7-dione], in data set [1], the Emax was found to be 93% and the EC50 was 13 nM.

As to `O=C1CCC2=C1C(c1ccc(F)c(Cl)c1)C1=C(CCC1=O)N2` [Example 5, 8-(3-Chloro-4-fluorophenyl)-2,3,4,5,6,8-hexahydrodicyclopenta[b,e]pyridine-1,7-dione], in data set [1], the Emax is 72% and the EC50 stood at 140 nM.

With `O=C1CCC2=C1C(c1ccc(Cl)c([N+](=O)[O-])c1)C1=C(CCC1=O)N2` [Example 3, 8-(4-Chloro-3-nitrophenyl)-2,3,4,5,6,8-hexahydrodicyclopenta[b,e]pyridine-1,7-dione], in data set [1], the Emax came out at 113% and the EC50 was determined as 53 nM. In data set [2], the Index is reported as 0.35, the EC50 was 251 nM and the “Efficacy (% P1075)” value worked out at 98 % P1075. The “AUC ED30” value with bladder contractions is 0.1 µmol/kg. In data set [3] (setting [4]), the solubility at 60 h turned out to be 129 µM (≈ 44.5 µg/mL). Further, in data set [3] (setting [5]), the solubility at 60 h was found to be 129 µM (≈ 44.5 µg/mL).

Regarding `O=C1CCC2=C1C(c1ccc(Cl)c(Cl)c1)C1=C(CCC1=O)N2` [Example 6, 8-(3,4-Dichlorophenyl)-2,3,4,5,6,8-hexahydrodicyclopenta[b,e]pyridine-1,7-dione], in data set [1], the Emax stood at 94% and the EC50 was determined as 100 nM.

As for `CCC(C)(C)N=C(NC#N)Nc1cccnc1` [Example P1075, reference compound], in data set [2] (10^−9 to 10^−5 M, cumulative, dose dependent), the “Effect on stimulated twitch” value was “completely eliminated the stimulated twitch”.
